# Experimental data published in PMC8249783, “A novel multikinase inhibitor SKLB‐YTH‐60 ameliorates inflammation and fibrosis in bleomycin‐induced lung fibrosis mouse models” (Cell Proliferation, 2021).
# Tests used:
# [1] = system: Human pulmonary fibroblasts (HPF); assay: Cell viability assay (CCK8); type: cell-based; settings: 24‐72 hours
# Method: (§1) The cell viability of YTH‐60 and Nintedanib treatment was performed by MTT and CCK8 assay. Briefly, the exponentially growing cells were seeded in 96‐well (2‐5 × 10^3 cells·well^−1) and cultured for 24 hours. The cells were treated with different concentrations of YTH‐60 (0, 0.625, 1.25, 2.5, 5, 10 µmol·L^−1), after treatment for 24, 48 and 72 hours, respectively, a volume of 20 μL of 5 mg·mL^−1 MTT solution or 10 μL CCK‐8 solution was added to each well and incubation for 2‐4 hours at 37°C. Finally, the 96‐well plates were read on Multiskan FC microplate spectrophotometer at 570 or 450 nm wavelength.
# [2] = system: MRC‐5 human embryo lung fibroblast; assay: Cell viability assay (CCK8); type: cell-based; settings: MRC‐5, 24‐72 hours
# Method: as §1
# [3] = system: NIH‐3T3 (mouse embryonic fibroblast); assay: Cell viability assay (CCK8); type: cell-based; settings: NIH‐3T3, 24‐72 hours
# Method: as §1
# [4] = system: LO2 cells; assay: Cytotoxicity in normal human liver cell line; type: cell-based; settings: 24 hours exposure
# Method: as §1
# [5] = system: α‐SMA, collagen I and TGF‐β1 mRNA in NIH‐3T3 cells; assay: Real‐time qPCR of fibrosis markers in TGF‐β1‐treated fibroblasts; type: cell-based, mouse; settings: NIH‐3T3, TGF‐β1 and 2.5 μmol·L^−1 for 24 hours
# Method: Total RNA of lung tissues or cells was extracted by using AxyPrep Multisource Total RNA Miniprep Kit (Axygen). Reverse transcription was carried out with Evo M‐MLV RT Kit with gDNA Clean (Accurate, AG11711). qRTPCR was conducted using SYBR Green Pro Taq HS (Accurate, AG11701).
# [6] = system: A549 cells; assay: Wound healing assay; type: cell-based, human; settings: A549, combined with TGF‐β1 vs TGF‐β1 alone
# Method: A549 cells (1 × 10^6 well^−1) were grown on 6‐well plates in 2 mL 10% FBS DMEM medium. Making a scratch with a sterile 200 μL microtube tip after 24 hours and the scratched cells were washed gently with serum‐free DMEM. Then, TGF‐β1 or YTH‐60 added to their corresponding wells and cultured for 24 hours. Each picture was imaged at three different locations. ImageJ software was used to estimate the percentage of the original width by measuring the width of the scratches.
# [7] = system: BLM‐induced pulmonary fibrosis; assay: BLM‐induced pulmonary fibrosis mouse model, preventive treatment; type: in vivo, C57BL/6 mice; settings: mice, day 14
# Method: Male C57BL/6 mice (8‐10 weeks old) were purchased from HFK Bioscience Co. Ltd. All animal experiments were permitted by the Institutional Animal Care and Treatment Committee of Sichuan University in China (New Permit Number: 20190524003). Lung fibrosis was induced using BLM treatment (2 mg·kg^−1). All C57BL/6 mice were divided into five groups (n = 10): a BLM + Nintedanib group (Nintedanib, 30 mg·kg^−1), a BLM + YTH‐60 group (YTH‐60, 15 mg·kg^−1 and 30 mg·kg^−1), a control group (Sham), and a bleomycin group (Vehicle). At the beginning, the mice were anaesthetized using 10% chloral hydrate, dissolved BLM with saline and administered intratracheally. To evaluate the preventive effect, the next day after BLM challenge, YTH‐60 and Nintedanib were administered intraperitoneally daily for 13 days (fibroproliferation) to the mice. All mice were sacrificed 24 hours after the last drug injection, the lungs and other organs were taken for the subsequent analysis. […]
# The left lung was detached and immediately fixed in 4% paraformaldehyde for 72 hours and then embed with paraffin wax. […] Ashcroft scoring was used to examine the severity of pulmonary fibrosis. ^20 The image analysis‐based system to quantify collagen deposition was described previously. ^21 […]
smiles,measurement,setting,value
"COc1cc(OC)c(Cl)c(-c2ccc3c(/C=C/c4ccc(N(C)C(=O)CN5CCN(C)CC5)cc4)n[nH]c3c2)c1Cl [YTH‐60, (E)‐N‐(4‐(2‐(6‐(2,6‐dichloro‐3,5‐dimethoxyphenyl)‐1H‐indazol‐3‐yl)vinyl)phenyl)‐N‐methyl‐2‐(4‐methylpiperazin‐1‐yl)acetamide]",cell proliferation / viability (in words),[1],inhibits cell proliferation in a time‐ and concentration‐dependent manner
same,cell proliferation / viability (in words),[2],inhibits cell proliferation in a time‐ and concentration‐dependent manner
same,cell proliferation / viability (in words),[3],inhibits cell proliferation in a time‐ and concentration‐dependent manner
same,"cytotoxicity, viability of LO2 cells (in words)",[4],inhibited the viability of LO2 cells less than Nintedanib
same,"mRNA levels of α‐SMA, collagen I and TGF‐β1 (in words)",[5],reduced this effect
same,cell migration (in words),[6],significantly inhibited cell migration
same,preventive effect on BLM‐induced pulmonary fibrosis (in words),[7]; 15 mg·kg^−1 i.p.,less effective
same,preventive effect on BLM‐induced pulmonary fibrosis (in words),[7]; 30 mg·kg^−1 i.p.,good preventive effect
